Drawing on patent publication US8242280B2, “Fused ring heterocycle kinase modulators” (SGX Pharmaceuticals, Inc., priority 2007, dated 2012), this text covers IC50 and GI50 for 36 compounds.

Assay [1] concerns the target T1, unphosphorylated T315I Abl kinase domain (Mus musculus, UniProt P00520, T315I).
T1 construct: purified and unphosphorylated T315I Abl kinase domain; made in house; host or cells: E. coli BL21(DE3) (Codon+RIL or pSA0145 strain)
T1 sequence (P00520 242-493 T315I limits assumed): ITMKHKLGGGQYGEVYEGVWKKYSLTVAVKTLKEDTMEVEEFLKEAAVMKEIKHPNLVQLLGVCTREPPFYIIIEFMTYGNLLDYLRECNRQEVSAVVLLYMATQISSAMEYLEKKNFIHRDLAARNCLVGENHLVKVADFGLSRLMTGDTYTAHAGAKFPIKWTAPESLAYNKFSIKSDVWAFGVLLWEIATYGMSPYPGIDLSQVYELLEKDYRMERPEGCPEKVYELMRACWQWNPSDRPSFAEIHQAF
Nature of the assay: c-Abl T315I 0P bioassay (pyruvate kinase/lactate dehydrogenase coupled enzyme assay). The assay is classed as biochemical. Conditions: zero phosphorylation state (0P), 10 μM ATP, read-out: AbI T315I 0P IC50.

Assay [2] addresses Ba/F3 cells, ABL1 WT (Homo sapiens, UniProt P00519). Nature of the assay: 96-well XTT cell survival assay, Ba/F3 ABL1 WT. It counts as cell-based. Conditions: 72 hours, read-out: ABL1 WT XTT [Ba/F3] IC50. The procedure, abridged: (§1)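 Ba/F3 cells carrying wild-type or T315I ABL1 were seeded at 5000-8000 per well with graded compound concentrations in duplicate and grown 72 hours at 37° C. Survival was read by XTT/PMS reduction after a further 2-6 h, as absorbance at 405 nm with 650 nm background correction.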

The target of assay [3] is Ba/F3 cells, ABL1 T315I (Homo sapiens, UniProt P00519, T315I, cells depend on it). Nature of the assay: 96-well XTT cell survival assay, Ba/F3 ABL1 T315I. It counts as cell-based. Conditions: 72 hours, read-out: ABL1 T315I XTT [Ba/F3] IC50. In outline: as §1

Each structure is given as a SMILES string. A value given as a limit tells only on which side of the number the result lay.

On to `COc1ccccc1-c1n[nH]c2ncc(-c3cccc(C(C)C(=O)N(C)C4CCN(C)C4)c3)cc12` (stereo not drawn), for which, in assay [1], the IC50 was under 0.05 µM. For the same compound, the GI50 in assay [2] was under 1 µM; in assay [3], over 1 µM.

On to `COc1ccccc1-c1n[nH]c2ncc(-c3cccc(C(C)(O)C(=O)N4CC(O)C4)c3)cc12` (stereo not drawn), for which the IC50 in assay [1] was under 0.05 µM. Further, the GI50 in assay [2] and in assay [3] was over 1 µM each time.

On to `COc1ccccc1-c1n[nH]c2ncc(-c3cccc(C(O)C(=O)N(C)C4CCOCC4)c3)cc12` (stereo not drawn), for which the IC50 in assay [1] is under 0.05 µM. In addition, the GI50 in assay [2] and in assay [3] was under 1 µM throughout.

With `COc1ccccc1-c1n[nH]c2ncc(-c3cccc(C(=O)C(=O)N4CC(O)C4)c3)cc12`, in assay [1], the IC50 is under 0.05 µM. The GI50 in assay [2] and in assay [3] was over 1 µM in each case.

As for `COc1ccccc1-c1n[nH]c2ncc(-c3cccc(C(O)C(=O)N(C4CC4)C4CCN(C)CC4)c3)cc12` (stereo not drawn), the IC50 in assay [1] is under 0.05 µM. The GI50 in assay [2] and in assay [3] was under 1 µM throughout.

Turning to `COc1ccccc1-c1n[nH]c2ncc(-c3cccc(C(O)C(=O)N(C)CCO)c3)cc12` (stereo not drawn), the IC50 in assay [1] is under 0.05 µM. For the same compound, the GI50 in assay [2] and in assay [3] was under 1 µM each time.

As for `COc1ccccc1-c1c[nH]c2ncc(-c3cccc(C(C(=O)N(C)CCN(C)C)N4CCNCC4)c3)cc12` (stereo not drawn), the 50% inhibitory concentration (IC50) in assay [1] was under 0.05 µM. The GI50 in assay [2] and in assay [3] was over 1 µM throughout.

As for `COc1ccccc1-c1c[nH]c2ncc(-c3cccc(C(O)C(=O)N(C)CCN(C)C)c3)cc12` (stereo not drawn), in assay [1], the IC50 was under 0.05 µM. Moreover, the GI50 in assay [2] and in assay [3] was under 1 µM in each case.

On to `COc1ccccc1-c1n[nH]c2ncc(-c3cccc(C(O)c4nccn4C)c3)cc12` (stereo not drawn), for which the IC50 in assay [1] was under 0.05 µM. Also, the GI50 in assay [2] was under 1 µM; in assay [3], over 1 µM.

With `COc1ccccc1-c1c[nH]c2ncc(-c3cnc(N)c(C(O)C(=O)N(C)C)c3)cc12` (stereo not drawn), in assay [1], the half-maximal inhibitory concentration (IC50) was under 0.05 µM. Moreover, the GI50 in assay [2] and in assay [3] was under 1 µM throughout.

For the compound `CN(C)C(=O)C(O)c1cncc(-c2cnc3[nH]cc(-c4cccc(C(F)(F)F)c4)c3c2)c1` (stereo not drawn), in assay [1], the IC50 was under 0.05 µM. Besides, the GI50 in assay [2] and in assay [3] was over 1 µM in each case.

As for `COc1ccccc1-c1c[nH]c2ncc(-c3cncc(C(O)C(=O)N(C)Cc4ccncc4)c3)cc12` (stereo not drawn), the IC50 in assay [1] is under 0.05 µM. The GI50 in assay [2] and in assay [3] was over 1 µM in each case.

For `CNC(C(=O)N1CCC(N(C)C)C1)c1cccc(-c2cnc3[nH]nc(-c4ccccc4OC)c3c2)c1` (stereo not drawn), in assay [1], the IC50 was under 0.05 µM. Besides, the GI50 in assay [2] and in assay [3] was over 1 µM in each case.

Turning to `COc1ccccc1-c1c[nH]c2ncc(-c3cccc(C(O)C(=O)N(C)C)c3)cc12` (stereo not drawn), the IC50 in assay [1] is under 0.05 µM. In addition, the GI50 in assay [2] and in assay [3] was under 1 µM throughout.

For the compound `COc1ccccc1-c1n[nH]c2ncc(-c3cccc(C(O)c4ccccn4)c3)cc12` (stereo not drawn), the IC50 in assay [1] is under 0.05 µM. In addition, the GI50 is under 1 µM in assay [2] and over 1 µM in assay [3].

Turning to `COc1ccccc1-c1c[nH]c2ncc(-c3cccc(C(O)C(=O)N(C)CC4CCCO4)c3)cc12` (stereo not drawn), the IC50 in assay [1] is under 0.05 µM. Moreover, the GI50 in assay [2] and in assay [3] was under 1 µM in each case.

Consider `COc1ccccc1-c1n[nH]c2ncc(-c3cccc(C(O)C(N)=O)c3)cc12` (stereo not drawn), for which the IC50 in assay [1] is under 0.05 µM. Also, the GI50 in assay [2] and in assay [3] was under 1 µM in each case.

As to `COc1ccc(F)cc1-c1c[nH]c2ncc(-c3cc(C(O)C(=O)N(C)C)c[n+]([O-])c3)cc12` (stereo not drawn), the IC50 in assay [1] was under 0.05 µM. The GI50 in assay [2] and in assay [3] was over 1 µM in each case.

With `COc1ccccc1-c1c[nH]c2ncc(-c3cccc(C(C(=O)N4CCC[C@@H]4CO)N4CCNCC4)c3)cc12` (stereo partly drawn), the IC50 in assay [1] is under 0.05 µM. The GI50 in assay [2] and in assay [3] was over 1 µM in each case.

As to `CNC(C(=O)N(C)CCN(C)C)c1cccc(-c2cnc3[nH]nc(-c4ccccc4OC)c3c2)c1` (stereo not drawn), the IC50 in assay [1] is under 0.05 µM. For the same compound, the GI50 in assay [2] and in assay [3] was over 1 µM each time.

`COc1ccccc1-c1n[nH]c2ncc(-c3cccc(C(O)c4ncccc4C(F)(F)F)c3)cc12` (stereo not drawn): the IC50 in assay [1] is under 0.05 µM. Also, the GI50 in assay [2] and in assay [3] was over 1 µM throughout.

On to `COc1ccccc1-c1n[nH]c2ncc(-c3cccc(C(O)C(=O)N4CCC(O)C4)c3)cc12` (stereo not drawn), for which the IC50 in assay [1] was under 0.05 µM. The GI50 in assay [2] and in assay [3] was over 1 µM in each case.

With `Cc1cccc(-c2c[nH]c3ncc(-c4cncc(C(O)C(=O)N(C)C)c4)cc23)c1` (stereo not drawn), the IC50 in assay [1] was under 0.05 µM. The GI50 in assay [2] and in assay [3] was under 1 µM each time.

With `COc1ccccc1-c1n[nH]c2ncc(-c3cccc(C(O)C(=O)NCCN(C)C)c3)cc12` (stereo not drawn), the IC50 in assay [1] was under 0.05 µM. In addition, the GI50 in assay [2] is under 1 µM; in assay [3] it was over 1 µM.

For the compound `CN(C)C(=O)C(O)c1cncc(-c2cnc3[nH]cc(-c4ccno4)c3c2)c1` (stereo not drawn), in assay [1], the IC50 is under 0.05 µM. Moreover, the GI50 in assay [2] and in assay [3] was over 1 µM each time.

Take `CCN(C)C(=O)C(O)c1cncc(-c2cnc3[nH]cc(-c4ccccc4OC)c3c2)c1` (stereo not drawn): the IC50 in assay [1] is under 0.05 µM. Moreover, the GI50 in assay [2] and in assay [3] was under 1 µM in each case.

Consider `COc1ccccc1-c1n[nH]c2ncc(-c3cccc(C(C)C(=O)N4CCC(N(C)C)C4)c3)cc12` (stereo not drawn), for which the IC50 in assay [1] is under 0.05 µM. Moreover, the GI50 in assay [2] and in assay [3] was under 1 µM each time.

In the case of `COc1ccccc1-c1n[nH]c2ncc(-c3cccc(C(O)C(=O)N(C)CCC#N)c3)cc12` (stereo not drawn), the 50% inhibitory concentration (IC50) in assay [1] is under 0.05 µM. Moreover, the GI50 in assay [2] and in assay [3] was under 1 µM throughout.

Turning to `CN(C)C(=O)C(O)c1cncc(-c2cnc3[nH]cc(-c4ccc(Cl)cc4)c3c2)c1` (stereo not drawn), the 50% inhibitory concentration (IC50) in assay [1] is under 0.05 µM. Further, the GI50 in assay [2] was under 1 µM; in assay [3], over 1 µM.

Turning to `COc1ccccc1-c1c[nH]c2ncc(-c3cncc(C(O)C(=O)N(C)C(C)C)c3)cc12` (stereo not drawn), the IC50 in assay [1] is under 0.05 µM. The GI50 is over 1 µM in assay [2] and under 1 µM in assay [3].

`COC[C@H]1CCCN1C(=O)C(O)c1cccc(-c2cnc3[nH]nc(-c4ccccc4OC)c3c2)c1` (stereo partly drawn): the IC50 in assay [1] is under 0.05 µM. Also, the figures for the GI50 in assay [2] and in assay [3] were under 1 µM and over 1 µM, respectively.

As to `COc1ccccc1-c1n[nH]c2ncc(-c3cccc(C(C(=O)N(C)CCN(C)C)N(C)C)c3)cc12` (stereo not drawn), the IC50 in assay [1] lay within 0.05 to 0.5 µM. For the same compound, the GI50 in assay [2] and in assay [3] was over 1 µM in each case.

With `CN(C)C(=O)C(O)c1cncc(-c2cnc3[nH]cc(-c4cccc(S(C)(=O)=O)c4)c3c2)c1` (stereo not drawn), in assay [1], the IC50 is over 0.5 µM. In addition, the GI50 in assay [2] and in assay [3] was over 1 µM each time.

For the compound `CN(C)C(=O)C(O)c1cncc(-c2cnc3[nH]cc(-c4ccnn4CC(F)(F)F)c3c2)c1` (stereo not drawn), the IC50 in assay [1] is over 0.5 µM. The GI50 in assay [2] and in assay [3] was over 1 µM each time.

Regarding `COc1ccccc1-c1n[nH]c2ncc(-c3cccc(C(=O)C(=O)N(C)CCN(C)C)c3)cc12`, the IC50 in assay [1] is under 0.05 µM. For the same compound, the GI50 in assay [2] and in assay [3] was under 1 µM each time.

`COc1ccccc1-c1n[nH]c2ncc(-c3cncc(C(O)C(=O)N(C)C)c3)cc12` (stereo not drawn): the IC50 in assay [1] is under 0.05 µM. In addition, the GI50 in assay [2] and in assay [3] was under 1 µM in each case.
